From US9226929B2, “Pharmaceutically active disubstituted triazine derivatives” (Bayer Intellectual Property GMBH, priority 2011, dated 2016)

Key:
Assay type in all cases: cell-based
[1] = tested on: Hela cells; assay: Cell Viability Assay, Hela cells; conditions: Homo sapiens, 72 h, Cell Titer Glo, read-out: Cell Viability - Hela cells (activity range), IC50
Description: (§1) 3.4 Cell Viability Assays
(§2) Hela- or MDAMB468-Cells were maintained in RPMI 1640 or McCoy's 5A cell culture medium+glutamine (PAN Biotech GmbH, Aidenbach, Germany; order no. PO4-22100; PO4-05500) supplemented with 10% fetal calf serum “Gold” (PAA Laboratories GmbH, Pasching, Austria; order no. A15-151) and grown at 37° C., 5% CO2. For the cell viability assay, cells were seeded with a density of 400 (Hela cells, DSMZ Braunschweig order no. ACC57) or 800 (MDAMB468 cells, ATCC order no. HTB-132) per well in 25 μL in 384-well plates (Greiner Bio-One, Frickenhausen, Germany; order no. 781080). After overnight incubation at 37° C./5% CO2, 25 nL or 75 nL compound were added to each sample well by using BIOMEK FXP Laboratory Automation Workstation (Beckman Coulter, USA). Wells with cells and 0.1% or 0,3% DMSO in culture medium were used as positive controls, wells with cells and 10 μM staurosporine in culture medium were used as negative controls. The cells were incubated with the compounds for 72 h at 37° C./5% CO2. For measurement of cell viability 25 μL Cell Titer Glo reagent (Promega, Madison, USA; order no. G7573), 1:2 diluted with cell culture medium, was added to each well. The 384we11-plates were placed for 2 min on a orbital microplate shaker and incubated for further 10 min at room temperature to stabilize the luminescence signal.
(§3) Luminescence was measured by Envision Plate Reader (Perkin Elmer, USA). IC50 values were calculated with the software Excel Fit (IDBS, Guildford, UK) from 3-fold dilution series comprising at least 8 concentrations in duplicates.

[2] = tested on: MDAMB468 cells; assay: Cell Viability Assay, MDAMB468 cells; conditions: Homo sapiens, MDA-MB-468; 72 h, Cell Titer Glo; read-out: Cell Viability - MDAMB468 cells (activity range), IC50
Description: as §1, §2, §3

[3] = tested on: LPS-induced TNF alpha release in PBMCs; assay: TNF alpha Release Assay; conditions: Homo sapiens, PBMC, 1 μg/mL LPS, 6 h, read-out: TNF alpha release (activity range), IC50
Description: 3.3 TNF alpha Release Assay
Freshly isolated peripheral blood mononuclear cells (PBMCs) were seeded in 96-well cell culture plates with 200,000 cells in 100 μl cell culture medium (DMEM cell culture medium+glutamine from PAN Biotech GmbH, Aidenbach, Germany) supplemented with 10% fetal calf serum (PAA Laboratories GmbH, Pasching, Austria) per well and incubated overnight at 37° C., 5% CO2. To each well, 100 μL cell culture medium with 2× concentrated test compounds diluted from 10 mM DMSO stocks, or 100 μL DMEM with 0.4% DMSO for control wells, was added. The compounds of general formula (I) summarized in Table 6 were used in this assay. After incubation for 1 h at 37° C., 5% CO2, cells were stimulated with 1 μg/mL LPS (Lipopolysaccharides, Sigma, catalog #L4391-1 MG; 1 mg/ml stock solution), or left untreated for negative controls, and plates were incubated for 6 h at 37° C./5% CO2. The cell culture plates were centrifuged at 2000 rpm for 5 minutes, and supernatants were transferred to fresh 96-well polypropylene plates. 25 μL of supernatants were transferred into 96-well-plates of the human TNF alpha-tissue culture kit (Meso Scale Discovery, Gaithersburg, Md., USA), and manufacturer's instructions were followed for analysis of TNF alpha levels. […]

Row | Structure (SMILES) | IC50 [1] [µM] | IC50 [2] [µM] | IC50 [3] [µM]
1 | COC[C@H]1CCCN1c1ncnc(Nc2cccc(CS(N)(=O)=O)c2)n1 [Compound B17, (R)-3-[(4-(2-(Methoxymethyl)pyrrolidin-1-yl)-1,3,5-triazin-2-yl)amino]benzenemethanesulfonamide] | – | – | 1 to 10
2 | NS(=O)(=O)Cc1cccc(Nc2ncnc(N3Cc4cn[nH]c4C3)n2)c1 [Compound B51, 3-[(4-(Pyrrolo[3,4-c]pyrazol-5(1H,4H,6H)-yl)-1,3,5-triazin-2-yl)amino]-benzenemethanesulfonamide] | > 10 | > 10 | –
3 | NS(=O)(=O)Cc1cccc(Nc2ncnc(N3CCCCC3)n2)c1 [Compound B1, 3-[(4-(Piperidin-1-yl)-1,3,5-triazin-2-yl)amino]benzenemethane sulfonamide] | – | – | > 10

Second part, led by results:

Row | IC50 [1] [µM] | IC50 [2] [µM] | Structure (SMILES) | IC50 [3] [µM]
4 | > 10 | > 10 | NS(=O)(=O)Cc1cccc(Nc2ncnc(N3CCc4nc[nH]c4C3)n2)c1 [Compound B44, 3-[(4-(6,7-Dihydro-3H-imidazo[4,5-c]pyridin-5(4H)-yl)-1,3,5-triazin-2-yl)amino]benzenemethanesulfonamide] | –
5 | 1 to 10 | 1 to 10 | NS(=O)(=O)Cc1cccc(Nc2ncnc(N3CCc4ncsc4C3)n2)c1 [Compound B45, 3-[(4-(6,7-Dihydrothiazolo[5,4-c]pyridin-5(4H)-yl)-1,3,5-triazin-2-yl)amino]benzenemethanesulfonamide] | –
